Source: patent EP4818168A1, “FUSED RING COMPOUND, PHARMACEUTICAL COMPOSITION THEREOF AND USE THEREOF” (priority 2023, dated 2025)
Where two headings read alike, the source gives them in different places.

Biological target: T1, AURKA (Homo sapiens, UniProt O14965)
T1 construct: endogenous in cells; host or cells: Jurkat cells
T1 sequence (O14965 1-403): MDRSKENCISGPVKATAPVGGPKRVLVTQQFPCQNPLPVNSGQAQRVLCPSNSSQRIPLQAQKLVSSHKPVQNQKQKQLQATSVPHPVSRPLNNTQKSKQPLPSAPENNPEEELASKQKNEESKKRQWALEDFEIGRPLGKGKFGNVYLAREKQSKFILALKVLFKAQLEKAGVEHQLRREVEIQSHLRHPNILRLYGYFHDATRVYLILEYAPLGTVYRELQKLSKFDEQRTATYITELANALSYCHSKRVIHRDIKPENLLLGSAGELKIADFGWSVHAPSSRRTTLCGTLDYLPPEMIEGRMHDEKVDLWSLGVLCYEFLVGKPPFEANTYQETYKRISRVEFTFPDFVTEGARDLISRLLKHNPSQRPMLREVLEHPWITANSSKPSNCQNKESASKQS
Format: cell-based
Settings: Jurkat cells, 24 h
Text: WB is a classical biochemical experimental method used to detect the abundance of a target protein in a sample of cells or biological tissue. It relies on specific antigen-antibody binding to detect protein signals from the sample processed by gel electrophoresis: the protein specifically binds to a primary antibody at an epitope; the primary antibody is then conjugated with a secondary antibody to amplify the signal cascade; the signal is read out by chemiluminescent or fluorescent detection. The intracellular protein content is ultimately characterized by the intensity of the optical signals. […] The DC50 value can be calculated by curve fitting of the protein WB exposure signals.
The experimental procedure is as follows: • 1. Seed Jurkat cells into a 12-well plate at 1×10^6 cells/500 µL/well. • 2. Mix the culture medium with the compound to a concentration that is twice the desired final concentration. […] Transfer the cell suspension to a centrifuge tube. Rinse the 12-well plate with PBS and then transfer the PBS from the plate to the same centrifuge tube. Centrifuge at 3000 rpm for 5 min at room temperature. Aspirate the supernatant using a vacuum pump. […] Lyse on ice for 20 min. • 4. Centrifuge the lysed sample at 13000 rpm for 20 min at 4°C. Mix the supernatant with 5× protein loading buffer. Boil at 100°C for 5 min and then cool. Store the denatured protein sample at -20°C. • 5. […] Run electrophoresis at 80 V for 20 min, and then at 120 V constant voltage for 60 min. • 6. Transfer the protein onto a nitrocellulose membrane in an ice bath at 250 mA constant current for 90 min. • 7. […] Incubate with a primary antibody overnight at 4°C. • 9. […] Incubate with a secondary antibody for 1-2 h at room temperature. • 10. […] Expose and image the membrane using a LICOR Odyssey DLx imager.

SMILES | Percentage of AURKA Degradation Induced by 100 nM Compound in Jurkat Cells (Table 2) | Percentage of AURKA Degradation Induced by 1 µM Compound in Jurkat Cells (Table 2) | Percentage of AURKA Degradation Induced by 100 nM Compound in Jurkat Cells (Table 1) | Percentage of AURKA Degradation Induced by 1 µM Compound in Jurkat Cells (Table 1)
O=C1CCN(c2ccc(N3CCC4(CC3)CC(NC(=O)c3ccc(Nc5ncc6c(n5)-c5ccc(Cl)cc5C(c5c(F)cccc5F)=NC6)cc3)C4)c(F)c2)C(=O)N1 [Compound A93] | ++ (30% < Degradation ≤ 70%) | +++ (Degradation > 70%) |  | 
COc1cc(Nc2ncc3c(n2)-c2ccc(Cl)cc2C(c2c(F)cccc2OC)=NC3)ccc1C(=O)NCCOCCNc1cccn2c(N3CCC(=O)NC3=O)cnc12 [Compound A20] |  |  | ++ (30% < Degradation ≤ 70%) | ++ (30% < Degradation ≤ 70%)
O=C1CCN(C23CCC(N4CCN(CCNC(=O)c5ccc(Nc6ncc7c(n6)-c6ccc(Cl)cc6C(c6c(F)cccc6F)=NC7)cc5)CC4)(CC2)CC3)C(=O)N1 [Compound A91] | + (Degradation ≤ 30%) | + (Degradation ≤ 30%) |  | 
COc1cc(Nc2ncc3c(n2)-c2ccc(Cl)cc2C(c2c(F)cccc2F)=NC3)ccc1N1CC(F)(CN2CCN(c3ccc(N4CCC(=O)NC4=O)cn3)CC2)C1 [Compound A289] | +++ (Degradation > 70%) | +++ (Degradation > 70%) |  | 
O=C1CCN(c2cncc(N3CCN(C4CN(c5cccc(Nc6ncc7c(n6)-c6ccc(Cl)cc6C(c6c(F)cccc6F)=NC7)c5)C4)CC3)c2C(F)F)C(=O)N1 [Compound A193] | + (Degradation ≤ 30%) | + (Degradation ≤ 30%) |  | 
O=C1CCN(C23CC(N4CCN(CCNC(=O)c5ccc(Nc6ncc7c(n6)-c6ccc(Cl)cc6C(c6c(F)cccc6F)=NC7)cc5)CC4)(C2)C3)C(=O)N1 [Compound A92] | + (Degradation ≤ 30%) | + (Degradation ≤ 30%) |  | 
COc1cc(Nc2ncc3c(n2)-c2ccc(Cl)cc2C(c2c(F)cccc2OC)=NC3)ccc1C(=O)NCCN1CCN(c2ccc(-n3ccc(=O)[nH]c3=O)cn2)CC1 [Compound A31] |  |  | ++ (30% < Degradation ≤ 70%) | ++ (30% < Degradation ≤ 70%)
CN(C)CCOc1ccc2c(c1)C(c1c(F)cccc1F)=NCc1cnc(Nc3ccc(N4CC(CN5CCN(c6ccc(N7CCC(=O)NC7=O)cn6)CC5)C4)cc3)nc1-2 [Compound A260] | ++ (30% < Degradation ≤ 70%) | ++ (30% < Degradation ≤ 70%) |  | 
CN1C(=O)CCN(c2ccc(N3CCC4(CC3)CC(NC(=O)c3ccc(Nc5ncc6c(n5)-c5ccc(Cl)cc5C(c5c(F)cccc5F)=NC6)cc3)C4)nc2)C1=O [Compound A82] | + (Degradation ≤ 30%) | + (Degradation ≤ 30%) |  | 
O=C1CCN(c2ccc(N3CC(N4CC(NC(=O)c5ccc(Nc6ncc7c(n6)-c6ccc(Cl)cc6C(c6c(F)cccc6F)=NC7)cc5)C4)C3)nc2)C(=O)N1 [Compound A84] | ++ (30% < Degradation ≤ 70%) | +++ (Degradation > 70%) |  | 
O=C1CCN(c2cnc(N3CCC(N4CCN(c5ccc(Nc6ncc7c(n6)-c6ccc(Cl)cc6C(c6c(F)cccc6F)=NC7)cc5)C(=O)C4)CC3)s2)C(=O)N1 [Compound A154] | +++ (Degradation > 70%) | ++ (30% < Degradation ≤ 70%) |  | 
CP(C)(=O)c1ccc2c(c1)C(c1c(F)cccc1F)=NCc1cnc(Nc3ccc(N4CCN(C5CCN(c6ccc(N7CCC(=O)NC7=O)cn6)CC5)CC4)cc3)nc1-2 [Compound A266] | ++ (30% < Degradation ≤ 70%) | ++ (30% < Degradation ≤ 70%) |  | 
O=C1CCN(c2cccc(N3CC4(CC(NC(=O)c5ccc(Nc6ncc7c(n6)-c6ccc(Cl)cc6C(c6c(F)cccc6F)=NC7)cc5)C4)C3)c2)C(=O)N1 [Compound A62] |  |  | ++ (30% < Degradation ≤ 70%) | ++ (30% < Degradation ≤ 70%)
Cc1c(N2CCC3(CC2)CN(Cc2cccc(Nc4ncc5c(n4)-c4ccc(Cl)cc4C(c4c(F)cccc4F)=NC5)c2)C3)cccc1N1CCC(=O)NC1=O [Compound A163] | ++ (30% < Degradation ≤ 70%) | + (Degradation ≤ 30%) |  | 
O=C1CCN(c2ccc(N3CCC(Cn4cnc(-c5ccc(Nc6ncc7c(n6)-c6ccc(Cl)cc6C(c6c(F)cccc6F)=NC7)cc5)c4)CC3)nc2)C(=O)N1 [Compound A159] | +++ (Degradation > 70%) | +++ (Degradation > 70%) |  | 
O=C1CCN(c2ccc(N3CCC(F)(CN4CCN(C56CC(Nc7ncc8c(n7)-c7ccc(Cl)cc7C(c7nccs7)=NC8)(C5)C6)C(=O)C4)CC3)nc2)C(=O)N1 [Compound A278] | ++ (30% < Degradation ≤ 70%) | +++ (Degradation > 70%) |  | 
O=C1CCN(c2cncc(N3CCC(N4CC5(CN(c6cccc(Nc7ncc8c(n7)-c7ccc(Cl)cc7C(c7c(F)cccc7F)=NC8)c6)C5)C4)CC3)c2)C(=O)N1 [Compound A241] | +++ (Degradation > 70%) | ++ (30% < Degradation ≤ 70%) |  | 
O=C1CCN(c2ccc(N3CC(Cn4cnc(-c5ccc(Nc6ncc7c(n6)-c6ccc(Cl)cc6C(c6c(F)cccc6F)=NC7)cc5)c4)C3)nc2)C(=O)N1 [Compound A160] | ++ (30% < Degradation ≤ 70%) | ++ (30% < Degradation ≤ 70%) |  | 
O=C1CCN(c2ccc([C@H]3C[C@H](N4CC(NC(=O)c5ccc(Nc6ncc7c(n6)-c6ccc(Cl)cc6C(c6c(F)cccc6F)=NC7)cc5)C4)C3)nc2)C(=O)N1 [Compound A113] | +++ (Degradation > 70%) | ++ (30% < Degradation ≤ 70%) |  | 
O=C1CCN(c2ccc(N3CCC(N4CCN(c5ccc(Nc6ncc7c(n6)-c6ccc(Cl)cc6C(c6c(F)cccc6F)=NC7)cc5)CC4=O)CC3)nc2)C(=O)N1 [Compound A295] | +++ (Degradation > 70%) | ++ (30% < Degradation ≤ 70%) |  | 
O=C1CCN(c2ccc(N3CCN(CCn4ccnc4-c4ccc(Nc5ncc6c(n5)-c5ccc(Cl)cc5C(c5c(F)cccc5F)=NC6)cc4)CC3)cc2)C(=O)N1 [Compound A111] | + (Degradation ≤ 30%) | + (Degradation ≤ 30%) |  | 
O=C1CCN(c2ccc(N3CCC4(CC3)CC(NC(=O)c3ccc(Nc5ncc6c(n5)-c5ccc(Cl)cc5C(c5ccccc5Cl)=NC6)cc3)C4)nc2)C(=O)N1 [Compound A119] | +++ (Degradation > 70%) | +++ (Degradation > 70%) |  | 
O=C1CCN(c2ccc(N3CCN(CCNc4ccc(Nc5ncc6c(n5)-c5ccc(Cl)cc5C(c5c(F)cccc5F)=NC6)cc4)CC3)cc2)C(=O)N1 [Compound A108] | + (Degradation ≤ 30%) | + (Degradation ≤ 30%) |  | 
O=C1CCN(c2ccc(N3CC4(C3)CN(C3CN(c5ccc(Nc6ncc7c(n6)-c6ccc(Cl)cc6C(c6c(F)cccc6F)=NC7)cc5)C3)C4)nc2)C(=O)N1 [Compound A204] | +++ (Degradation > 70%) | ++ (30% < Degradation ≤ 70%) |  | 
O=C1CCN(c2ccc([C@H]3C[C@@H](N4CC(NC(=O)c5ccc(Nc6ncc7c(n6)-c6ccc(Cl)cc6C(c6c(F)cccc6F)=NC7)cc5)C4)C3)nc2)C(=O)N1 [Compound A114] | +++ (Degradation > 70%) | +++ (Degradation > 70%) |  | 
